Experimental data from PubChem BioAssay AID1259408 (Genetic Toxicology Data Bank (GENE-TOX), 2018).
Activity calls are given as the source filed them. No rule for the calls is given here.

Tested on: GENE-TOX genotoxicity assays, various organisms and cells
Test: GENE-TOX mutagenicity studies
Conditions: for call: Assay Type: In vivo carcinogenicity studies
[1] = Species/Cell Type: Human diploid fibroblasts, Assay Type: Unscheduled DNA synthesis (UDS) in vitro, DNA effects, Assay Code: UDH+, Evaluation Type: Evaluation A (Pre-1980)
[2] = Species/Cell Type: Salmonella typhimurium (one or more of the five standard strains: TA98, TA100, TA1535, TA1537, and TA1538), Assay Type: Histidine reverse gene mutation, Ames assay, Assay Code: SAL+*, Activation: With metabolic activation, Evaluation Type: Evaluation A (Pre-1980)
[3] = Species/Cell Type: Nonhuman, Assay Code: CCG+, Evaluation Type: Evaluation A (Pre-1980)
[4] = Species/Cell Type: Salmonella typhimurium (one or more of the five standard strains: TA98, TA100, TA1535, TA1537, and TA1538), Assay Type: Histidine reverse gene mutation, Ames assay, Assay Code: SALT, Evaluation Type: Evaluation A (Pre-1980)
[5] = Species/Cell Type: Human lymphocytes, Assay Type: Sister-chromatid exchange (SCE) in vitro, Assay Code: SCL+D, Dose Response: With dose response, Evaluation Type: Evaluation B (Post-1980)
[6] = Species/Cell Type: Human, Assay Type: Sister-chromatid exchange (SCE) in vitro, Assay Code: SC1+D, Dose Response: With dose response, Evaluation Type: Evaluation B (Post-1980)
[7] = Species/Cell Type: Nonhuman, Assay Code: CCG+L, Evaluation Type: Evaluation A (Pre-1980)
[8] = Species/Cell Type: Syrian hamster embryo (SHE) cells, Assay Type: Cell transformation, clonal assay, Assay Code: CTC+, Evaluation Type: Evaluation A (Pre-1980)
[9] = Species/Cell Type: Rodents, Sex: Male, Assay Type: Dominant lethal test, Assay Code: DLT-, Evaluation Type: Evaluation A (Pre-1980)
[10] = Species/Cell Type: Salmonella typhimurium (one or more of the five standard strains: TA98, TA100, TA1535, TA1537, and TA1538), Assay Type: Histidine reverse gene mutation, Ames assay, Assay Code: SAL+, Evaluation Type: Evaluation A (Pre-1980)
[11] = Species/Cell Type: Bacillus subtilis (H17 vs M45), Assay Type: Rec-assay, spot test, DNA effects (bacterial DNA repair), Assay Code: REW+, Evaluation Type: Evaluation A (Pre-1980)

Compound: COC1=C(N)C(=O)c2nc(-c3nc(C(=O)O)c(C)c(-c4ccc(OC)c(OC)c4O)c3N)ccc2C1=O
- mutagenic call (Species/Cell Type: Fischer rat embryo (RLV/1706) cells, Assay Type: Cell transformation, viral enhanced, Assay Code: CTR-, Evaluation Type: Evaluation A (Pre-1980)): inactive; negative
- mutagenic call (Species/Cell Type: Human cell culture, Assay Type: Chromosome aberrations in vitro, Assay Code: CYZ+, Evaluation Type: Evaluation A (Pre-1980)): active; positive
- mutagenic call [1]: active; positive
- mutagenic call (Species/Cell Type: Mammalian oocytes or early embryo, Assay Type: Chromosome aberrations in vivo, Assay Code: CYO+, Evaluation Type: Evaluation A (Pre-1980)): active; positive
- mutagenic call (Species/Cell Type: Nonhuman, Assay Type: Sister-chromatid exchange (SCE) in vivo, Assay Code: SC3+, Evaluation Type: Evaluation A (Pre-1980)): active; positive
- mutagenic call (Species/Cell Type: Vicia faba, Assay Type: Chromosome aberrations, Assay Code: VIC+, Evaluation Type: Evaluation A (Pre-1980)): active; positive

Compound: CC(C)(C)Cl
- mutagenic call (Species/Cell Type: Escherichia coli polA (W3119 vs P3478), Assay Type: Rec-assay, DNA effects (bacterial DNA repair), Assay Code: RE1T, Evaluation Type: Evaluation A (Pre-1980)): no conclusion

Compound: O=C1c2ccccc2C(=O)c2c1cc(O[C@H]1O[C@H](CO[C@@H]3OC[C@@H](O)[C@H](O)[C@H]3O)[C@@H](O)[C@H](O)[C@H]1O)c(CO)c2O
- mutagenic call [2]: active; positive

Compound: O=[N+]([O-])c1cnc(CO)n1CCO
- mutagenic call (Species/Cell Type: Human lymphocytes, Assay Type: Sister-chromatid exchange (SCE) in vitro, Assay Code: SCLT, Evaluation Type: Evaluation B (Post-1980)): no conclusion
- mutagenic call (Species/Cell Type: Human, Assay Type: Sister-chromatid exchange (SCE) in vitro, Assay Code: SC1T, Evaluation Type: Evaluation B (Post-1980)): no conclusion

Compound: CCOC(=O)COc1ccc(Br)cc1CSC(=N)N
- mutagenic call (Species/Cell Type: Saccharomyces cerevisiae, Assay Type: Reverse gene mutation, Assay Code: YERT, Evaluation Type: Evaluation A (Pre-1980)): no conclusion

Compound: O=S(=O)(O)c1cccc(Nc2nc(Nc3ccc(/C=C/c4ccc(Nc5nc(Nc6cccc(S(=O)(=O)O)c6)nc(N(CCO)CCO)n5)cc4S(=O)(=O)O)c(S(=O)(=O)O)c3)nc(N(CCO)CCO)n2)c1
- mutagenic call (Species/Cell Type: Nonhuman, Assay Type: Sister-chromatid exchange (SCE) in vitro, Assay Code: SC2T, Evaluation Type: Evaluation A (Pre-1980)): no conclusion

Compound: Nc1ccc(Oc2ccc(N)cc2)cc1
- call [3]: active; positive
- mutagenic call (Species/Cell Type: Nonhuman, Assay Type: Sister-chromatid exchange (SCE) in vivo, Assay Code: SC3T, Evaluation Type: Evaluation B (Post-1980)): no conclusion

Compound: C=C(C)[C@H]1O[C@H]2CC[C@@]3(C)[C@@](O)(CC[C@H]4[C@@H]5OC(C)(C)[C@H]6C[C@@H]7C(=C)Cc8c(Cl)cc9[nH]c(c5c9c8[C@@]76O)[C@@]43C)[C@]23O[C@@H]3[C@H]1O
- mutagenic call (Species/Cell Type: Saccharomyces cerevisiae, Assay Type: Mitotic recombination or gene conversion, Assay Code: YEH-, Evaluation Type: Evaluation A (Pre-1980)): inactive; negative
- mutagenic call [4]: no conclusion

Compound: CC1=C(O)C(=O)CC1
- mutagenic call [5]: active; positive
- mutagenic call [6]: active; positive

Compound: Cc1ccc2cc3c(cc(-c4ccccc4O)c4ccccc43)c3c2c1CC3
- mutagenic call (Species/Cell Type: Chinese hamster lung (V79) cells, Assay Type: Forward gene mutation at the HPRT or ouabain locus, Assay Code: V79-, Evaluation Type: Evaluation A (Pre-1980)): inactive; negative

Compound: C1=Cc2cc3cccc4ccc5ccc1c2c5c43
- call [7]: active; positive
- mutagenic call [2]: active; positive

Compound: Cc1c2ccccc2cc2c1ccc1ccccc12
- mutagenic call (Species/Cell Type: Chinese hamster lung (V79) cells, Assay Type: Forward gene mutation at the HPRT or ouabain locus, Assay Code: V79+*, Activation: With metabolic activation, Evaluation Type: Evaluation A (Pre-1980)): active; positive
- mutagenic call (Species/Cell Type: Drosophila melanogaster, Assay Type: Sex-linked recessive lethal gene mutation, Assay Code: SRLT, Evaluation Type: Evaluation A (Pre-1980)): no conclusion
- mutagenic call (Species/Cell Type: Mouse prostate cells, Assay Type: Cell transformation, Assay Code: CTM+D, Dose Response: With dose response, Evaluation Type: Evaluation A (Pre-1980)): active; positive
- call [3]: active; positive
- mutagenic call (Species/Cell Type: Nonhuman, Assay Type: Sister-chromatid exchange (SCE) in vitro, Assay Code: SC2+D, Dose Response: With dose response, Evaluation Type: Evaluation A (Pre-1980)): active; positive
- mutagenic call [2]: active; positive
- mutagenic call [8]: active; positive

Compound: Nc1cc([N+](=O)[O-])ccc1O
- mutagenic call (Species/Cell Type: Mammalian polychromatic erythrocytes, Assay Type: Micronucleus test, chromosome aberrations, Assay Code: MNTT, Evaluation Type: Evaluation A (Pre-1980)): no conclusion
- mutagenic call (Species/Cell Type: Neurospora crassa, Assay Type: Aneuploidy, chromosome aberrations, Assay Code: NEN-, Evaluation Type: Evaluation A (Pre-1980)): inactive; negative
- mutagenic call [9]: inactive; negative

Compound: CC(=O)c1ccc([N+](=O)[O-])o1
- mutagenic call [10]: active; positive

Compound: C=CC(OC(C)=O)c1ccc(OC)c2ccccc12 (stereo not given)
- mutagenic call [10]: active; positive

Compound: CC(C)(C)N(CCCCO)N=O
- mutagenic call [4]: no conclusion

Compound: C/C(=C/c1ccc(SC#N)cc1)[N+](=O)[O-]
- mutagenic call [11]: active; positive

Compound: O=[N+]([O-])c1cc([N+](=O)[O-])c2ccc3cccc4ccc1c2c43
- mutagenic call (Species/Cell Type: Chinese hamster ovary (CHO) cells, Assay Type: Forward gene mutation at the HPRT locus, Assay Code: CHO+*, Activation: With metabolic activation, Evaluation Type: Evaluation B (Post-1980)): active; positive

Compound: ClCc1ccccc1
- mutagenic call [11]: active; positive
- mutagenic call (Species/Cell Type: Chinese hamster ovary (CHO) cells, Assay Type: Forward gene mutation at the HPRT locus, Assay Code: CHOT, Evaluation Type: Evaluation B (Post-1980)): no conclusion
- mutagenic call (Species/Cell Type: Escherichia coli polA (W3110 vs P3478), Assay Type: Rec-assay, DNA effects (bacterial DNA repair), Assay Code: RE2+, Evaluation Type: Evaluation A (Pre-1980)): active; positive
- mutagenic call (Species/Cell Type: Escherichia coli polA (W3119 vs P3478), Assay Type: Rec-assay, DNA effects (bacterial DNA repair), Assay Code: RE1+, Evaluation Type: Evaluation A (Pre-1980)): active; positive
- mutagenic call [1]: active; positive
- mutagenic call (Species/Cell Type: Human lymphocytes, Assay Type: Sister-chromatid exchange (SCE) in vitro, Assay Code: SCL+, Evaluation Type: Evaluation B (Post-1980)): active; positive
- mutagenic call (Species/Cell Type: Human, Assay Type: Sister-chromatid exchange (SCE) in vitro, Assay Code: SC1+, Evaluation Type: Evaluation B (Post-1980)): active; positive
- mutagenic call (Species/Cell Type: Mammalian polychromatic erythrocytes, Assay Type: Micronucleus test, chromosome aberrations, Assay Code: MNT-, Evaluation Type: Evaluation B (Post-1980)): inactive; negative
- call [7]: active; positive
- mutagenic call (Species/Cell Type: Saccharomyces cerevisiae, Assay Type: Mitotic recombination or gene conversion, Assay Code: YEH+, Evaluation Type: Evaluation A (Pre-1980)): active; positive
- mutagenic call [10]: active; positive
- mutagenic call (Species/Cell Type: Salmonella typhimurium, Assay Type: Forward and reverse gene mutation, host-mediated assay, Assay Code: HMA-, Evaluation Type: Evaluation A (Pre-1980)): inactive; negative
- mutagenic call [8]: active; positive

Compound: O=C1C=C2C(=CCOC2O)O1 (stereo not given)
- mutagenic call [11]: active; positive
- mutagenic call [5]: active; positive
- mutagenic call [6]: active; positive
- mutagenic call (Species/Cell Type: Nonhuman, Assay Type: Chromosome aberrations in vitro, Assay Code: CY&+, Evaluation Type: Evaluation A (Pre-1980)): active; positive
- call (Species/Cell Type: Nonhuman, Assay Code: CCGT, Evaluation Type: Evaluation A (Pre-1980)): no conclusion
- mutagenic call (Species/Cell Type: Nonhuman, Assay Type: Sister-chromatid exchange (SCE) in vitro, Assay Code: SC2-, Evaluation Type: Evaluation B (Post-1980)): inactive; negative
- mutagenic call [9]: inactive; negative
- mutagenic call (Species/Cell Type: Saccharomyces cerevisiae, Assay Type: Mitotic recombination or gene conversion, Assay Code: YEH+/-*, Activation: With metabolic activation, Evaluation Type: Evaluation A (Pre-1980)): inactive; positive without activation, negative with activation
- mutagenic call (Species/Cell Type: Salmonella typhimurium (one or more of the five standard strains: TA98, TA100, TA1535, TA1537, and TA1538), Assay Type: Histidine reverse gene mutation, Ames assay, Assay Code: SAL-, Evaluation Type: Evaluation A (Pre-1980)): inactive; negative

Compound: c1ccc2c(C3CO3)c3ccccc3cc2c1 (stereo not given)
- mutagenic call [10]: active; positive

Compound: c1ccc2c(c1)cc1ccc3cccc4c5ccccc5c2c1c34
- call [3]: active; positive
